Experimental data: PubChem BioAssay (NCI)
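In this assay, cells in 96-well plates receive the compound at five concentrations for 48 hours. Endpoints are linearly interpolated between the surrounding concentrations. TGI denotes the concentration required for complete inhibition of growth.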

Legend:
Assay in all cases: NCI tumour cell line growth inhibition, 48 h
NCI-H522 lung = tested on: NCI-H522 lung
A549 NSCLC = tested on: A549 NSCLC
HCT-116 colon = tested on: HCT-116 colon
SK-MEL-2 melanoma = tested on: SK-MEL-2 melanoma
RPMI-8226 leukemia = tested on: RPMI-8226 leukemia
SF-268 CNS = tested on: SF-268 CNS
SK-MEL-28 melanoma = tested on: SK-MEL-28 melanoma
SK-MEL-5 melanoma = tested on: SK-MEL-5 melanoma
MDA-MB-435 = tested on: MDA-MB-435
OVCAR-5 ovarian = tested on: OVCAR-5 ovarian
TK-10 renal = tested on: TK-10 renal
HCT-15 colon = tested on: HCT-15 colon
ACHN renal = tested on: ACHN renal
HOP-92 NSCLC = tested on: HOP-92 NSCLC
DU-145 prostate = tested on: DU-145 prostate
T-47D breast = tested on: T-47D breast
UACC-257 melanoma = tested on: UACC-257 melanoma
NCI-H460 lung = tested on: NCI-H460 lung
OVCAR-3 ovarian = tested on: OVCAR-3 ovarian
NCI-H226 lung = tested on: NCI-H226 lung
NCI/ADR-RES ovarian = tested on: NCI/ADR-RES ovarian
NCI-H23 lung = tested on: NCI-H23 lung
SK-OV-3 ovarian = tested on: SK-OV-3 ovarian
HCC-2998 colon = tested on: HCC-2998 colon
EKVX NSCLC = tested on: EKVX NSCLC
MOLT-4 leukemia = tested on: MOLT-4 leukemia
BT-549 breast = tested on: BT-549 breast
CAKI-1 renal = tested on: CAKI-1 renal
SR leukemia = tested on: SR leukemia
LOX IMVI melanoma = tested on: LOX IMVI melanoma
SF-295 CNS = tested on: SF-295 CNS
MCF7 breast = tested on: MCF7 breast
MDA-MB-231 breast = tested on: MDA-MB-231 breast
K-562 leukemia = tested on: K-562 leukemia
HOP-62 NSCLC = tested on: HOP-62 NSCLC
OVCAR-4 ovarian = tested on: OVCAR-4 ovarian
HS 578T breast = tested on: HS 578T breast
PC-3 prostate = tested on: PC-3 prostate
OVCAR-8 ovarian = tested on: OVCAR-8 ovarian
HT29 colon = tested on: HT29 colon
CCRF-CEM leukemia = tested on: CCRF-CEM leukemia
M14 melanoma = tested on: M14 melanoma
IGROV1 ovarian = tested on: IGROV1 ovarian
786-0 renal = tested on: 786-0 renal
MDA-N = tested on: MDA-N
SNB-19 CNS = tested on: SNB-19 CNS
SN12C renal = tested on: SN12C renal
KM12 colon = tested on: KM12 colon
UO-31 renal = tested on: UO-31 renal
HL-60(TB) leukemia = tested on: HL-60(TB) leukemia
COLO 205 colon = tested on: COLO 205 colon
RXF 393 renal = tested on: RXF 393 renal
U251 CNS = tested on: U251 CNS
UACC-62 melanoma = tested on: UACC-62 melanoma
MALME-3M melanoma = tested on: MALME-3M melanoma
SNB-75 CNS = tested on: SNB-75 CNS
M19-MEL melanoma = tested on: M19-MEL melanoma
SF-539 CNS = tested on: SF-539 CNS
HOP-18 NSCLC = tested on: HOP-18 NSCLC
DMS 273 small cell lung = tested on: DMS 273 small cell lung
A498 renal = tested on: A498 renal
SW-620 colon = tested on: SW-620 colon
DLD-1 colon = tested on: DLD-1 colon
SNB-78 CNS = tested on: SNB-78 CNS
KM20L2 colon = tested on: KM20L2 colon
DMS 114 small cell lung = tested on: DMS 114 small cell lung

## O=C1CC(C(=O)O)Cc2c(Br)ccc(O)c21 (stereo not given)
NCI-H522 lung
  TGI: > 100 µM
A549 NSCLC
  TGI: > 100 µM
HCT-116 colon
  TGI: > 100 µM
SK-MEL-2 melanoma
  TGI: > 100 µM
RPMI-8226 leukemia
  TGI: > 100 µM
SF-268 CNS
  TGI: > 100 µM
SK-MEL-28 melanoma
  TGI: > 100 µM
SK-MEL-5 melanoma
  TGI: > 100 µM
MDA-MB-435
  TGI: > 100 µM
OVCAR-5 ovarian
  TGI: > 100 µM
TK-10 renal
  TGI: > 100 µM
HCT-15 colon
  TGI: > 100 µM
ACHN renal
  TGI: > 100 µM
HOP-92 NSCLC
  TGI: > 100 µM
DU-145 prostate
  TGI: > 100 µM
T-47D breast
  TGI: > 100 µM
UACC-257 melanoma
  TGI: > 100 µM
NCI-H460 lung
  TGI: > 100 µM
OVCAR-3 ovarian
  TGI: > 100 µM
NCI-H226 lung
  TGI: > 100 µM
NCI/ADR-RES ovarian
  TGI: > 100 µM
NCI-H23 lung
  TGI: > 100 µM
SK-OV-3 ovarian
  TGI: > 100 µM
HCC-2998 colon
  TGI: > 100 µM
EKVX NSCLC
  TGI: > 100 µM
MOLT-4 leukemia
  TGI: > 100 µM
BT-549 breast
  TGI: > 100 µM
CAKI-1 renal
  TGI: > 100 µM
SR leukemia
  TGI: > 100 µM
LOX IMVI melanoma
  TGI: > 100 µM
SF-295 CNS
  TGI: > 100 µM
MCF7 breast
  TGI: > 100 µM
MDA-MB-231 breast
  TGI: > 100 µM
K-562 leukemia
  TGI: > 100 µM
HOP-62 NSCLC
  TGI: > 100 µM
OVCAR-4 ovarian
  TGI: > 100 µM
HS 578T breast
  TGI: > 100 µM
PC-3 prostate
  TGI: > 100 µM
OVCAR-8 ovarian
  TGI: > 100 µM
HT29 colon
  TGI: > 100 µM
CCRF-CEM leukemia
  TGI: > 100 µM
M14 melanoma
  TGI: > 100 µM
IGROV1 ovarian
  TGI: > 100 µM
786-0 renal
  TGI: > 100 µM
MDA-N
  TGI: > 100 µM
SNB-19 CNS
  TGI: > 100 µM
SN12C renal
  TGI: > 100 µM
KM12 colon
  TGI: > 100 µM
UO-31 renal
  TGI: > 100 µM
HL-60(TB) leukemia
  TGI: > 100 µM
COLO 205 colon
  TGI: > 100 µM
RXF 393 renal
  TGI: > 100 µM
U251 CNS
  TGI: > 100 µM
UACC-62 melanoma
  TGI: > 100 µM
MALME-3M melanoma
  TGI: > 100 µM

## O=C1c2cccc([N+](=O)[O-])c2C(=O)c2nccnc21
NCI-H522 lung
  TGI: 2.75 µM
SNB-75 CNS
  TGI: 2.35 µM
A549 NSCLC
  TGI: 3.37 µM
HCT-116 colon
  TGI: 3.66 µM
SK-MEL-2 melanoma
  TGI: 2.9 µM
M19-MEL melanoma
  TGI: 0.276 µM
RPMI-8226 leukemia
  TGI: 7.92 µM
SK-MEL-28 melanoma
  TGI: 3.01 µM
SK-MEL-5 melanoma
  TGI: 1.13 µM
OVCAR-5 ovarian
  TGI: 9.6 µM
TK-10 renal
  TGI: 3.85 µM
SF-539 CNS
  TGI: 2.93 µM
HCT-15 colon
  TGI: 2.92 µM
ACHN renal
  TGI: 15.1 µM
HOP-92 NSCLC
  TGI: 18.6 µM
UACC-257 melanoma
  TGI: 1.66 µM
NCI-H460 lung
  TGI: 2.79 µM
OVCAR-3 ovarian
  TGI: 3.88 µM
HOP-18 NSCLC
  TGI: 3.06 µM
NCI-H226 lung
  TGI: 4.06 µM
NCI-H23 lung
  TGI: 2.98 µM
HCC-2998 colon
  TGI: 6.17 µM
EKVX NSCLC
  TGI: 3.92 µM
MOLT-4 leukemia
  TGI: 5.22 µM
CAKI-1 renal
  TGI: 16.4 µM
SR leukemia
  TGI: 5.04 µM
LOX IMVI melanoma
  TGI: 2.68 µM
SF-295 CNS
  TGI: 3.5 µM
DMS 273 small cell lung
  TGI: 12.3 µM
A498 renal
  TGI: 17.3 µM
K-562 leukemia
  TGI: 4.17 µM
OVCAR-4 ovarian
  TGI: 2.8 µM
SW-620 colon
  TGI: 3.92 µM
OVCAR-8 ovarian
  TGI: 7.09 µM
HT29 colon
  TGI: 4.3 µM
CCRF-CEM leukemia
  TGI: 5.65 µM
M14 melanoma
  TGI: 2.96 µM
786-0 renal
  TGI: 3.2 µM
SNB-19 CNS
  TGI: 4.04 µM
SN12C renal
  TGI: 3.64 µM
UO-31 renal
  TGI: 2.6 µM
HL-60(TB) leukemia
  TGI: 4.81 µM
DLD-1 colon
  TGI: 11.4 µM
RXF 393 renal
  TGI: 3.71 µM
U251 CNS
  TGI: 4.34 µM
UACC-62 melanoma
  TGI: 2.62 µM
MALME-3M melanoma
  TGI: 3.04 µM
SNB-78 CNS
  TGI: 7.38 µM
KM20L2 colon
  TGI: 6.16 µM
DMS 114 small cell lung
  TGI: 2.3 µM
